Key:
[1] = test system: AgETHR-A; test: Calcium mobilization assay (aequorin luminescence) with heterologously expressed AgETHR-A; assay type: cell-based, Anopheles gambiae; conditions: for agonistic activity normalized by the activity of AgETH1 / response of AgETHR-A (in words) / concentration of maximum response (at the level over) / lowest activating concentration (receptor not activated lower than) / response/sensitivity of AgETHR-A to own ETHs (in words): AgETHR-A; for agonistic activity normalized by the activity of AgETH1: CHO cells, normalized to AgETH1; for response of AgETHR-A (in words): 0.1 and 1 μm; for EC50: AgETHR-A in CHO cells, calcium mobilization, luminescence integrated 20 s, at least three replicates; for concentration of maximum response (at the level over) / lowest activating concentration (receptor not activated lower than) / response/sensitivity of AgETHR-A to own ETHs (in words): dose-response
Text: (§1) We tested different synthetic insect neuropeptides with PRXamide, including four groups: ETH, pyrokinin1/DH, pyrokinin2/PBAN, and CAPA. The following synthetic peptides were utilized to investigate selectivity and sensitivity of each AgETHR-A and AgETHR-B; AgETH1 (SESPGFIKLSKSVPRIa, NEOBiolab, United States), AgETH2 (GDLENFFLKQSKSVPRIa, GenScript United States Inc.), TcETH1 (ENYVLKAAKNVPRIa), TcETH2 (FFMKASKSVPRIa), TcPK1-1 (PGANSGGMWFGPRLa, GenScript United States Inc.), TcPK1-2 ([…]a), TcCAPA-1([…]a, PepMicCo. Ltd., Suzhou, China), TcCAPA-2 (RIGKMVSFPRIa); MsPBAN (TRTRYFSPRLa), Pyrokinin2-1 (HVVNFTPRLa, Biomatik, United States), DmETH1 (DDSSPGFFLKITKNVPRLa) and DmETH2 (GENFAIKNLKTIPRIa).
(§2) The functional analysis of the AgETH receptors was performed based on the previous description with modifications ([Park et al., 2003]; [Kim et al., 2014]; [Jiang et al., 2016]). The expression vector pcDNA 3.1 (+) (Invitrogen, Carlsbad, CA, United States), including the open reading frame (ORF) for each AgETHR-A and AgETHR-B, was transiently transfected into the CHO cells with a codon-optimized human apoaequorin-containing plasmid ([Vernon and Printen, 2002]) by using TransIT®-2020 (Mirus, Madison, WI, United States). […] The Kozak sequence for the mammalian Kozak consensus sequence ‘GCCACC’ at the 5' ends of each ORF for each AgETHR-A and AgETHR-B was […], allowing for successful functional expression. After approximately 24–28 h, transfected cells were harvested and prepared for the calcium mobilization assay by incubating in assay media DMEM/F12, including coelenterazine h (final concentration 5 μm; AAT Bioquest, Sunnyvale, CA, United States). Different concentrations of synthetic neuropeptides, including AgETH1, AgETH2, and ETH-related neuropeptides (PRXamides), were prepared in a 96-well plate, upon which the transfected cells (~15,000 cells in 50 μl) were applied. The value of luminescence, the indicator or calcium mobilization, was integrated over time for 20 s and normalized to the treatment of either 0.1 or 1 μm of each AgETH1 and AgETH2 positive control response and negative control background values.

[2] = test system: AgETHR-B; test: Calcium mobilization assay (aequorin luminescence) with heterologously expressed AgETHR-B; assay type: cell-based, Anopheles gambiae; conditions: for agonistic activity normalized by the activity of AgETH2 / response of AgETHR-B relative to other ETHs (in words) / concentration of maximum response (at the level over) / lowest activating concentration (receptor not activated lower than) / response/sensitivity of AgETHR-B to own ETHs (in words): AgETHR-B; for agonistic activity normalized by the activity of AgETH2: CHO cells, normalized to AgETH2; for response of AgETHR-B relative to other ETHs (in words): 0.1 μm; for EC50: AgETHR-B in CHO cells, calcium mobilization, luminescence integrated 20 s, at least three replicates; for higher sensitivity of AgETHR-B than AgETHR-A: AgETHR-B vs. AgETHR-A, calcium mobilization assay; for concentration of maximum response (at the level over) / lowest activating concentration (receptor not activated lower than) / response/sensitivity of AgETHR-B to own ETHs (in words): dose-response
Text: as §1, §2

[3] = test system: TcETHR-B; conditions: out of 70 peptides, ref Jiang et al., 2015; cited from earlier work

| Substance | agonistic activity normalized by the activity of AgETH1 ([1]; 0.1 μM peptide) [%] | agonistic activity normalized by the activity of AgETH1 ([1]; 1 μM peptide) [%] | response of AgETHR-A (in words) [1] | agonistic activity normalized by the activity of AgETH2 ([2]; 0.1 μM peptide) [%] | agonistic activity normalized by the activity of AgETH2 ([2]; 1 μM peptide) [%] | other results |
| --- | --- | --- | --- | --- | --- | --- |
| DDSSPGFFLKITKNVPRLa [DmETH1, D. melanogaster ETH] | 138 | 102 | responded | 105 | 98 | – |
| ENYVLKAAKNVPRIa [TcETH1, T. castaneum ETH] | -11 | 32 | small or no response | 81 | 104 | agonist activity (in words) [3]: agonist activity; response of AgETHR-B relative to other ETHs (in words) [2]: relatively lower responses |
| EPKEPKRNKLASVYALTPSLRVa [TcCAPA-1, synthetic insect neuropeptide, CAPA (PepMicCo)] | -22 | -4 | – | 0 | -2 | – |
| FFMKASKSVPRIa [TcETH2, T. castaneum ETH] | 57 | 86 | responded | 109 | 107 | agonist activity (in words) [3]: agonist activity |
| GDLENFFLKQSKSVPRIa [AgETH2, Anopheles gambiae ecdysis triggering hormone 2, synthetic (GenScript)] | 24 | 69 | – | 100 | 100 | EC50 [1]: 703 nM; concentration of maximum response (at the level over) [1]: over 100 um; lowest activating concentration (receptor not activated lower than) [1]: ≥ 10 nm; response/sensitivity of AgETHR-A to own ETHs (in words) [1]: dose-dependent responses; response/sensitivity of AgETHR-A to own ETHs (in words) ([1]; listed as AgETH-2): sensitive; EC50 [2]: 2.2 nM; higher sensitivity of AgETHR-B than AgETHR-A [2]: 320 times; concentration of maximum response (at the level over) [2]: over 100 nm; lowest activating concentration (receptor not activated lower than) [2]: ≥ 0.03 nm; response/sensitivity of AgETHR-B to own ETHs (in words) [2]: dose-dependent responses; response/sensitivity of AgETHR-B to own ETHs (in words) ([2]; listed as AgETH-2): sensitive |
| GENFAIKNLKTIPRIa [DmETH2, D. melanogaster ETH] | -14 | 2 | small or no response | 83 | 102 | response of AgETHR-B relative to other ETHs (in words) [2]: relatively lower responses |
| HVVNFTPRLa [Pyrokinin2-1, synthetic insect neuropeptide with PRXamide (Biomatik)] | -21 | -4 | – | 1 | -1 | – |
| PGANSGGMWFGPRLa [TcPK-1-1, synthetic insect neuropeptide with PRXamide (GenScript)] | -18 | -2 | – | 1 | -3 | – |
| RIGKMVSFPRIa [TcCAPA-2, synthetic insect neuropeptide, CAPA] | -24 | -4 | – | 0 | 2 | – |
| SESPGFIKLSKSVPRIa [AgETH1, Anopheles gambiae ecdysis triggering hormone 1, synthetic (NEOBiolab)] | 100 | 100 | – | 97 | 98 | EC50 [1]: 127 nM; concentration of maximum response (at the level over) [1]: over 10 um; lowest activating concentration (receptor not activated lower than) [1]: ≥ 3 nm; response/sensitivity of AgETHR-A to own ETHs (in words) [1]: dose-dependent responses; response/sensitivity of AgETHR-A to own ETHs (in words) ([1]; listed as AgETH-1): sensitive; EC50 [2]: 4.5 nM; higher sensitivity of AgETHR-B than AgETHR-A [2]: 28 times; concentration of maximum response (at the level over) [2]: over 100 nm; lowest activating concentration (receptor not activated lower than) [2]: ≥ 0.1 nm; response/sensitivity of AgETHR-B to own ETHs (in words) [2]: dose-dependent responses; response/sensitivity of AgETHR-B to own ETHs (in words) ([2]; listed as AgETH-1): sensitive |
| TPHESSVPNERNDDSKETYFWFGPRLa [TcPK-1-2, synthetic insect neuropeptide with PRXamide] | -13 | -3 | – | 1 | -2 | – |
| TRTRYFSPRLa [MsPBAN, synthetic insect neuropeptide with PRXamide] | -21 | -3 | – | 0 | -2 | – |

— publication PMC8291126, “Functional Characterization of Ecdysis Triggering Hormone Receptors (AgETHR-A and AgETHR-B) in the African Malaria Mosquito, Anopheles gambiae” (Frontiers in Physiology, 2021)
